ChEMBL document CHEMBL1143211, “Inhibitors of proteases and amide hydrolases that employ an alpha-ketoheterocycle as a key enabling functionality” (Bioorg Med Chem, 2008)
Values belong to the compound of their own block, whether it stands above or below them.

Assays:
[1] = Inhibition of human rhinovirus 14 3C protease; set-up: species or system rhinovirus B14
rhinovirus B14 = test: Antiviral activity against human rhinovirus 14; assay type: functional, organism-based; conditions: Rhinovirus B
Hamster = test: Efficacy in po dosed hamster acute lung injury model; assay type: functional; conditions: Cricetinae
[2] = Inhibition of bovine trypsin; set-up: species or system Bos taurus
Homo sapiens = species on record: Homo sapiens; test: Selectivity for human alpha-thrombin over human trypsin
[3] = Inhibition of human beta-tryptase
[4] = Selectivity for rat FAAH over triacylglycerol hydrolase
Cathepsin S = Cathepsin S (Homo sapiens, UniProt P25774); test: Inhibition of human recombinant cathepsin S
Chain of Cathepsin S (P25774 whole entry): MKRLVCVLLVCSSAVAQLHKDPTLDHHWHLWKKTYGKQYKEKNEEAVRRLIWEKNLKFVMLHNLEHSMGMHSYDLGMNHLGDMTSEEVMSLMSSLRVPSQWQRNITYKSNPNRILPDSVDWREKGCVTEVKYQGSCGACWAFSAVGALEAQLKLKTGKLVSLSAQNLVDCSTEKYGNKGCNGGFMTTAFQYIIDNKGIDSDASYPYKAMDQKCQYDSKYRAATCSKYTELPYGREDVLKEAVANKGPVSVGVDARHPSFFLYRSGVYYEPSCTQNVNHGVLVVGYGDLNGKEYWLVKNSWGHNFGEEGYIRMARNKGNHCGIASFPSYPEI

[5] = Oral bioavailability in rat; assay type: ADME, organism-based; conditions: in vivo
Prothrombin = Prothrombin (Homo sapiens, UniProt P00734); test: Inhibition of human alpha-thrombin
Trypsin = Trypsin (Homo sapiens, UniProt P07477+P07478+P35030); test: Inhibition of human trypsin; assay type: protein assay
Cathepsin K = target: T1, Cathepsin K (Homo sapiens, UniProt P43235); test: Inhibition of human recombinant cathepsin K
T1 sequence (P43235 whole entry): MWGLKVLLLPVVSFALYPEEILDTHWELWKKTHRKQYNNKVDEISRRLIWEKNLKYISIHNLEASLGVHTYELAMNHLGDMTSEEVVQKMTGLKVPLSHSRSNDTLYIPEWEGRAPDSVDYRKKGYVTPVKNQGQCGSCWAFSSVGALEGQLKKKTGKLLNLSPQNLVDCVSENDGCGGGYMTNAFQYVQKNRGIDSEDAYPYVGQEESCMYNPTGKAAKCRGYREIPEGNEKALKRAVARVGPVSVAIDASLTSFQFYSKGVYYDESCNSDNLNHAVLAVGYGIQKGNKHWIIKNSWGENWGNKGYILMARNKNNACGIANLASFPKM

Cathepsin B = Cathepsin B (Homo sapiens, UniProt P07858); test: Inhibition of human liver cathepsin B
Procathepsin L = Procathepsin L (Homo sapiens, UniProt P07711); test: Inhibition of human recombinant cathepsin L
Chain of Procathepsin L (P07711 whole entry): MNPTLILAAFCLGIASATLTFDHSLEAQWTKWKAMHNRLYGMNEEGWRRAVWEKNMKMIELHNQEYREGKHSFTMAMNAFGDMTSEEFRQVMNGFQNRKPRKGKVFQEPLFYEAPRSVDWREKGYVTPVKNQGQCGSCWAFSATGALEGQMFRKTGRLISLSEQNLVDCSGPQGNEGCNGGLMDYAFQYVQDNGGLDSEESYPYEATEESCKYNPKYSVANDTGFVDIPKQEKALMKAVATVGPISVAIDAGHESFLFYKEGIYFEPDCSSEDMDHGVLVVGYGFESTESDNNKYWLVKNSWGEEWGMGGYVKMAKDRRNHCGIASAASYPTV

[6] = Selectivity for human alpha-thrombin over bovine trypsin
Prolyl endopeptidase = Prolyl endopeptidase (Sus scrofa, UniProt P23687)
Chain of Prolyl endopeptidase (P23687 whole entry): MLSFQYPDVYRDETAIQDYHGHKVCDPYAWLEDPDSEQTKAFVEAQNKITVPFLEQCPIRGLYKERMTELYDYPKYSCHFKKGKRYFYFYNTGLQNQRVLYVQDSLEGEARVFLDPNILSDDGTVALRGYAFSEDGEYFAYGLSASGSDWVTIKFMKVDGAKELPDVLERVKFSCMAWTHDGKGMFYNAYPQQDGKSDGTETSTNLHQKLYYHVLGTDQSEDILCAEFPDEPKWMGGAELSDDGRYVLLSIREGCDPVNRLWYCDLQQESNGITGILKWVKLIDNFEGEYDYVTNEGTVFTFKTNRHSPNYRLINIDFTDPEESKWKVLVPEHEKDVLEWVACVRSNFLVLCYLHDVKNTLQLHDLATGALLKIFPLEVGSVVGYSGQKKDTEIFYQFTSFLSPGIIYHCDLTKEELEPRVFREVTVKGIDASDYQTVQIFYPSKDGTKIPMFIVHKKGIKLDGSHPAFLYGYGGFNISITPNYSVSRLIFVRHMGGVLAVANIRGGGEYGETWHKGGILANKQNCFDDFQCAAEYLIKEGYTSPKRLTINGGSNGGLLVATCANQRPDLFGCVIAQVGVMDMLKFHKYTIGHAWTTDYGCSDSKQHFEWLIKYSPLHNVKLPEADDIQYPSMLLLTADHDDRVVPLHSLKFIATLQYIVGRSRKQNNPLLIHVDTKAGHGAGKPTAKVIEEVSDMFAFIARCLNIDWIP

[7] = target: T2, Fatty-acid amide hydrolase 1 (Rattus norvegicus, UniProt P97612)
T2 sequence (P97612 whole entry): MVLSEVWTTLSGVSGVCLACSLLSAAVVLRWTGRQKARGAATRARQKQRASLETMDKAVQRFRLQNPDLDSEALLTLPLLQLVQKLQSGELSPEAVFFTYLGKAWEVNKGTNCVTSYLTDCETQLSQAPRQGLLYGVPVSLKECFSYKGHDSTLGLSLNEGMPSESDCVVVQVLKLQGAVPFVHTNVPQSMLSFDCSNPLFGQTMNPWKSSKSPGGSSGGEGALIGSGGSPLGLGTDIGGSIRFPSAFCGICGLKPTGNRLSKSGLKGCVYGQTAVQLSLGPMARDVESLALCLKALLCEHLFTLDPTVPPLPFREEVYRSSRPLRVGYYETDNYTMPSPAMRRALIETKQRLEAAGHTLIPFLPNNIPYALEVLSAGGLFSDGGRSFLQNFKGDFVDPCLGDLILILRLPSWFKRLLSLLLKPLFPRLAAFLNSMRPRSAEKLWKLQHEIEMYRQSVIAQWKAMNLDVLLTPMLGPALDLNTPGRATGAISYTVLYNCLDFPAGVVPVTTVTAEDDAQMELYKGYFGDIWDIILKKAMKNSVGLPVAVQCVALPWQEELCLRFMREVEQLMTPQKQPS

SMILES: COC(=O)N[C@H](C(=O)N1CCC[C@H]1C(=O)N[C@H](C(=O)c1nn(-c2ccc(N(C)C)cc2)c(=O)o1)C(C)C)C(C)C
ED50 (Hamster): 7.5 mg/kg

SMILES: CN[C@H](Cc1ccccc1)C(=O)N1CCC[C@H]1C(=O)N[C@@H](CCCNC(=N)N)C(=O)c1nc2ccccc2n1C
Ki [2]: 290 nM

SMILES: NCCCC[C@H](NC(=O)c1cc(F)cc(F)c1)C(=O)c1noc(Cc2ccc(C(=O)NCCc3cccc(Cl)c3)cc2)n1
Selectivity ratio (Homo sapiens): 275
Ki [3]: 1.5 nM

SMILES: CN[C@H](Cc1ccccc1)C(=O)N1CCC[C@H]1C(=O)N[C@@H](CCCNC(=N)N)C(=O)c1nccn1C
Ki [2]: 5800 nM

SMILES: O=C(CCCCCCCCc1ccccc1)c1nnc(-c2ccccn2)o1
Selectivity ratio [4]: 600

SMILES: O=C(N[C@@H](CCc1ccccc1)C(=O)c1ncco1)[C@@H](CC(=O)N1CCOCC1)CC1CCCCC1
Ki (Cathepsin S): < 100 nM

SMILES: CC(C)C[C@H](NC(=O)OCc1ccccc1)C(=O)N[C@@H](Cc1ccccc1)C(=O)N[C@@H](C[C@H]1CCNC1=O)C(=O)c1ccccn1
Ki [1]: 170 nM
EC50 (rhinovirus B14): 4000 nM

SMILES: CN[C@H](Cc1ccccc1)C(=O)N1CCC[C@H]1C(=O)N[C@@H](CCCNC(=N)N)C(=O)c1ccccn1
Ki [2]: 73 nM

SMILES: N=C(N)NCCC[C@H](NC(=O)[C@@H]1CCCN1C(=O)c1ccccc1)C(=O)c1nc2ccccc2s1
Ki [2]: 160 nM
Ki [3]: 250 nM

SMILES: CN[C@H](Cc1ccccc1)C(=O)N1CCC[C@H]1C(=O)N[C@@H](CCCNC(=N)N)C(=O)c1cc2ccccc2s1
Ki [2]: 1300 nM
Ratio Ki [6]: 12000

SMILES: O=C(c1nc2ccccc2o1)[C@@H]1CCCN1C(=O)[C@@H]1CCCN1CCCc1ccccc1
IC50 (Prolyl endopeptidase): 5.6 nM

SMILES: CN[C@H](Cc1ccccc1)C(=O)N1CCC[C@H]1C(=O)N[C@@H](CCCN=C(N)N)C(=O)c1nc2ccccc2o1
Ki [2]: 13 nM
Ratio Ki [6]: 30

SMILES: CC(C)C[C@H](NC(=O)OCc1ccccc1)C(=O)N[C@@H](Cc1ccccc1)C(=O)N[C@@H](C[C@H]1CCNC1=O)C(=O)c1nc2ccccc2s1
Ki [1]: 65 nM
EC50 (rhinovirus B14): 3200 nM

SMILES: Cc1ccnc(-c2cnc(C(=O)CCCCCCc3ccccc3)o2)c1
Selectivity ratio [4]: 2000
Ki [7]: 0.6 nM

SMILES: CC(NC(=O)[C@H](CC(=O)N(C)C)NC(=O)[C@@H](NC(=O)CC(C)(C)C)C(C)(C)C)C(=O)c1nc2ccccc2o1 (some centres not stated)
IC50 (Prolyl endopeptidase): 80 nM

SMILES: N=C(N)NCCC[C@H](NC(=O)[C@@H]1CCN2CC[C@@](N)(Cc3ccccc3)C(=O)N12)C(=O)c1nc2ccccc2s1
Ki (Prothrombin): 0.65 nM
bioavailability [5]: 25%

SMILES: CCCC[C@H](NC(=O)CCc1ccccc1)C(=O)c1nnc(-c2ccco2)o1
Ki (Cathepsin K): 9600 nM
Ki (Cathepsin B): 25000 nM
Ki (Procathepsin L): 100000 nM
Ki (Cathepsin S): 26000 nM

SMILES: CN[C@H](Cc1ccccc1)C(=O)N1CCC[C@H]1C(=O)N[C@@H](CCCN=C(N)N)C(=O)c1nccs1
Ki [2]: 1.2 nM
Ratio Ki [6]: 10

SMILES: O=C(c1nc2ccccc2s1)[C@@H]1CCCN1C(=O)[C@@H]1CCCN1OCc1ccccc1
IC50 (Prolyl endopeptidase): 5.6 nM

SMILES: O=C(C1=NCCS1)[C@@H]1CCCN1C(=O)[C@@H]1CCCN1CCCc1ccccc1
IC50 (Prolyl endopeptidase): 3.8 nM

SMILES: CC(C)C[C@H](NC(=O)OCc1ccccc1)C(=O)N[C@@H](Cc1ccccc1)C(=O)N[C@@H](C[C@H]1CCNC1=O)C(=O)c1nccs1
Ki [1]: 700 nM
EC50 (rhinovirus B14): 7900 nM

SMILES: CC(C)C[C@H](NC(=O)OCc1ccccc1)C(=O)N[C@@H](Cc1ccccc1)C(=O)N[C@@H](C[C@H]1CCNC1=O)C(=O)c1cc2ccccc2s1
Ki [1]: 4700 nM
EC50 (rhinovirus B14): > 10000 nM

SMILES: CCCC[C@H](NC(=O)C(=O)[C@H](CC(C)C)NC(=O)OCc1ccccc1)C(=O)c1nnc(-c2ccco2)o1
Ki (Cathepsin K): < 0.25 nM
Ki (Cathepsin B): 2 nM
Ki (Procathepsin L): 1 nM
Ki (Cathepsin S): < 0.25 nM

SMILES: CCCC(F)(F)C[C@H](NC(=O)N1CCOCC1)C(=O)N[C@@H](CC)C(=O)c1nc(C2CC2)no1
Ki (Cathepsin S): < 100 nM

SMILES: O=C(c1nccs1)[C@@H]1CCCN1C(=O)[C@@H]1CCCN1CCCc1ccccc1
IC50 (Prolyl endopeptidase): 5 nM

SMILES: CS(=O)(=O)N1CCC[C@H]1C(=O)N[C@@H](CCCNC(=N)N)C(=O)c1nc2ccccc2s1
Ki [2]: 38 nM
Ki [3]: 33 nM

SMILES: CCOC(=O)c1csc(C(=O)[C@H](CCCNC(=N)N)NC(=O)[C@@H]2CCCN2C(=O)[C@@H](Cc2ccccc2)NC)n1
Ki (Prothrombin): 4.5 nM
Ki [2]: 5.4 nM

SMILES: CN[C@H](Cc1ccccc1)C(=O)N1CCC[C@H]1C(=O)N[C@@H](CCCN=C(N)N)C(=O)c1nc2c(s1)CCCC2
Ki [2]: 4.4 nM
Ratio Ki [6]: 15

SMILES: CC(C)C[C@H](NC(=O)C1CCNCC1)C(=O)N[C@@H](CCc1ccccc1)C(=O)c1nc2cc(C(C)(C)C)ccc2o1
Ki (Cathepsin K): 8.5 nM
Ki (Cathepsin B): 7000 nM
Ki (Procathepsin L): 70 nM
Ki (Cathepsin S): 30 nM

SMILES: CC[C@H](NC(=O)[C@H](CS(=O)(=O)Cc1ccccc1)OC(=O)N1CCOCC1)C(=O)c1nc2ccccc2o1
Ki (Cathepsin S): < 10 nM

SMILES: O=C(c1cncs1)[C@@H]1CCCN1C(=O)[C@@H]1CCCN1CCCc1ccccc1
IC50 (Prolyl endopeptidase): 1100 nM

The next lines start with results.

EC50 (rhinovirus B14): 340 nM
SMILES: Cc1cc(C(=O)N[C@H](C(=O)N[C@@H](Cc2ccc(F)cc2)C(=O)N[C@@H](C[C@@H]2CCNC2=O)C(=O)c2nc3ccccc3s2)C(C)C)no1
Ki [1]: 4.5 nM

Selectivity ratio (Homo sapiens): > 50
Ki [3]: 25 nM
SMILES: C=CCOC(=O)N[C@@H](CC1CCNC1)C(=O)c1noc(Cc2ccc(C(=O)NC3Cc4ccccc4C3)cc2)n1 (some centres not stated)

Ki (Cathepsin S): < 100 nM
SMILES: CCC[C@H](NC(=O)[C@@H](CC(=O)N1CCOCC1)CC(C)(C)C)C(=O)c1nc2ccccc2o1

bioavailability [5]: 23%
SMILES: NCCCC[C@H](NC(=O)[C@@H]1CCCN1C(=O)[C@H](N)CC1CCCCC1)C(=O)c1nccs1

Ki (Prothrombin): 1.2 nM
IC50 (Trypsin): 9700 nM
Ratio Ki (Homo sapiens): 500
SMILES: N=C(N)N1CCC[C@@H](C[C@H](NC(=O)CN2C(=O)CN(CCCc3ccccc3)C(=O)[C@H]2Cc2ccccc2Cl)C(=O)c2nccs2)C1

Ki (Cathepsin K): 3000 nM
Ki (Cathepsin B): 34000 nM
Ki (Procathepsin L): 28000 nM
Ki (Cathepsin S): 2000 nM
SMILES: CCCC[C@H](NC(=O)OCc1ccccc1)C(=O)c1nnc(-c2ccco2)o1

IC50 (Prolyl endopeptidase): 4 nM
SMILES: O=C(c1nc2ccccc2s1)[C@@H]1CCCN1C(=O)[C@@H]1CCCN1CCCc1ccccc1

Ki (Prothrombin): 0.85 nM
bioavailability [5]: 2%
SMILES: N=C(N)NCCC[C@H](NC(=O)[C@@H]1CC[C@@H]2CC[C@@](N)(Cc3ccccc3)C(=O)N21)C(=O)c1nc2ccccc2s1

IC50 (Prolyl endopeptidase): 9000 nM
SMILES: CC(NC(=O)[C@H](CC(=O)N(C)C)NC(=O)[C@@H](NC(=O)CC(C)(C)C)C(C)(C)C)C(=O)c1nc2ccccc2s1 (some centres not stated)

Ki (Cathepsin K): 500 nM
Ki (Cathepsin B): 16000 nM
Ki (Procathepsin L): 14000 nM
Ki (Cathepsin S): 380 nM
SMILES: CCCC[C@H](NC(=O)OCC(C)C)C(=O)c1nnc(-c2ccco2)o1

Ki (Cathepsin S): < 100 nM
SMILES: CCCC[C@H](NC(=O)[C@H](CS(=O)(=O)Cc1ccccc1)NC(=O)N1CCOCC1)C(=O)c1nnc(-c2ccccc2)o1

Selectivity ratio [4]: 100
Ki [7]: 0.57 nM
SMILES: CCCCCCCCCCCC(=O)c1nc2ncccc2o1

Ki (Cathepsin K): 40 nM
Ki (Cathepsin B): 90 nM
Ki (Procathepsin L): 220 nM
Ki (Cathepsin S): 40 nM
SMILES: CC(C)C[C@H](NC(=O)C1CCNCC1)C(=O)N[C@@H](CCc1ccccc1)C(=O)c1nc2cc(S(N)(=O)=O)ccc2o1

bioavailability [5]: < 5%
SMILES: NCCCC[C@H](NC(=O)[C@@H]1CCCN1C(=O)[C@@H](CC1CCCCC1)NCC(=O)O)C(=O)c1ncco1

Ki (Cathepsin K): 9.5 nM
Ki (Cathepsin B): 2100 nM
Ki (Procathepsin L): 30 nM
SMILES: CC(C)C[C@H](NC(=O)C1CCNCC1)C(=O)N[C@@H](CCc1ccccc1)C(=O)c1nc2ccccc2o1

Selectivity ratio [4]: 5000
SMILES: CCCCCCCC/C=C\CCCCCCCC(=O)c1nnc(-c2ccccn2)o1
